Here are results for three molecules from US12077503B2, “Substituted cyclic amides and their use as herbicides” (FMC CORPORATION, priority 2015, dated 2024).

Structures are written as SMILES. Read-outs that look alike come from different tables or passages of the source.

Common to all, as to type: in vivo
Assay [1] deals with ryegrass, Italian (Italian ryegrass, Lolium multiflorum). As to the kind of experiment: Test A postemergence. Conditions: Lolium multiflorum, post-emergence, 240 h, 125 g ai/ha, postemergence. In outline:
(§1)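 Compounds were formulated in a non-phytotoxic solvent mixture with surfactant and applied as a preemergence directed soil spray after seeding, or sprayed postemergence over plants 2 to 10 cm tall at the one- to two-leaf stage. Evaluation after about 10 d compared treated with untreated controls, using a scale from 0 (no effect) to 100 (complete control).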

Assay [2] concerns corn (Zea mays). Briefly: Test A postemergence. The note with it: Zea mays, post-emergence, 240 h, postemergence; for plant injury at 125 g/ha: 125 g ai/ha. In outline: as §1
Assay [3] concerns barnyardgrass (Echinochloa crus-galli). As to the kind of experiment: Test A postemergence. Conditions: Echinochloa crus-galli, post-emergence, 240 h, postemergence; for pest or weed control at 125 g/ha: 125 g ai/ha. In outline: as §1
The subject of assay [4] is Kochia (Kochia scoparia). Briefly: Test A postemergence. The note with it: Bassia scoparia, post-emergence, 240 h, postemergence; for pest or weed control at 125 g/ha: 125 g ai/ha. The method in brief: as §1
Assay [5] deals with giant foxtail (Setaria faberii). As to the kind of experiment: Test A postemergence. Conditions: Setaria faberi, post-emergence, 240 h, postemergence; for pest or weed control at 125 g/ha: 125 g ai/ha. The method in brief: as §1
The test system of assay [6] is Galium (catchweed bedstraw, Galium aparine). Briefly: Test A postemergence. The note with it: Galium, post-emergence, 240 h, postemergence; for pest or weed control at 125 g/ha: 125 g ai/ha. The method in brief:
as §1

In assay [7] the test system is pigweed (Amaranthus retroflexus). Briefly: Test A postemergence. The note with it: Amaranthus retroflexus, post-emergence, 240 h, 125 g ai/ha, postemergence. The method in brief: as §1
Assay [8] deals with wheat (Triticum aestivum). Briefly: Test A postemergence. The note with it: Triticum aestivum, post-emergence, 240 h, 125 g ai/ha, postemergence. The method in brief: as §1
In assay [9] the test system is ragweed (common ragweed, Ambrosia elatior). As to the kind of experiment: Test A postemergence. Conditions: Ambrosia artemisiifolia, post-emergence, 240 h, 125 g ai/ha, postemergence. The method in brief:
as §1

In assay [10] the test system is blackgrass (Alopecurus myosuroides). Briefly: Test A postemergence. The note with it: Alopecurus myosuroides, post-emergence, 240 h, postemergence; for pest or weed control at 125 g/ha: 125 g ai/ha. The method in brief: as §1
Assay [11] deals with pigweed (Amaranthus retroflexus). As to the kind of experiment: Test A preemergence. Conditions: Amaranthus retroflexus, pre-emergence, 240 h; for pest or weed control at 125 g/ha: 125 g ai/ha; for pest or weed control at 500 g/ha: 500 g ai/ha.
The test system of assay [12] is barnyardgrass (Echinochloa crus-galli). As to the kind of experiment: Test B flooded paddy test. The note with it: Echinochloa crus-galli, 250 g ai/ha, Flood, read-out: Barnyardgrass plant response rating. The method in brief:
(§2)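 Plants at 2-leaf stage flooded to 3 cm above soil, with compounds applied directly to paddy water and that depth maintained. Plants kept in greenhouse 13–15 d. Visual rating versus controls on a 0 (no effect) to 100 (complete control) scale.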

The test system of assay [13] is sedge, umbrella (small-flower umbrella sedge, Cyperus difformis). As to the kind of experiment: Test B flooded paddy test. Conditions: Cyperus difformis, 250 g ai/ha, Flood, read-out: Sedge, Umbrella plant response rating. In outline: as §2
Assay [14] concerns ducksalad (Heteranthera limosa). Briefly: Test B flooded paddy test. The note with it: Heteranthera limosa, 250 g ai/ha, Flood, read-out: Ducksalad plant response rating. In outline: as §2
The test system of assay [15] is rice (Oryra sativa). Briefly: Test B flooded paddy test. The note with it: Oryza sativa, 250 g ai/ha, Flood, read-out: Rice plant response rating. In outline:
as §2

Where [16] appears, read: 0 to 100 scale where 0 is no effect and 100 is complete control.
Where [17] appears, read: visual injury rating after approximately 10 d, read-out: Ryegrass, Italian plant response rating (0 to 100 scale, 0 no effect, 100 complete control).
The mark [18] stands for this setting: visual injury rating after approximately 10 d, read-out: Corn plant response rating (0 to 100 scale, 0 no effect, 100 complete control).
Where [19] appears, read: visual injury rating after approximately 10 d, read-out: Barnyardgrass plant response rating (0 to 100 scale, 0 no effect, 100 complete control).
Where [20] appears, read: visual injury rating after approximately 10 d, read-out: Kochia plant response rating (0 to 100 scale, 0 no effect, 100 complete control).
Where [21] appears, read: visual injury rating after approximately 10 d, read-out: Foxtail, Giant plant response rating (0 to 100 scale, 0 no effect, 100 complete control).
The mark [22] stands for this setting: visual injury rating after approximately 10 d, read-out: Galium plant response rating (0 to 100 scale, 0 no effect, 100 complete control).
The mark [23] stands for this setting: visual injury rating after approximately 10 d, read-out: Pigweed plant response rating (0 to 100 scale, 0 no effect, 100 complete control).
The mark [24] stands for this setting: visual injury rating after approximately 10 d, read-out: Wheat plant response rating (0 to 100 scale, 0 no effect, 100 complete control).
The mark [25] stands for this setting: visual injury rating after approximately 10 d, read-out: Ragweed plant response rating (0 to 100 scale, 0 no effect, 100 complete control).
The mark [26] stands for this setting: visual injury rating after approximately 10 d, read-out: Blackgrass plant response rating (0 to 100 scale, 0 no effect, 100 complete control).
Setting [27] is: preemergence, 0 to 100 scale where 0 is no effect and 100 is complete control, read-out: Pigweed plant response rating.
Where [28] appears, read: Preemergence, visual injury vs untreated controls after approximately 10 d, read-out: Pigweed plant response rating (0 to 100 scale where 0 is no effect and 100 is complete control).
Where [29] appears, read: scale of 0 to 100 where 0 is no effect and 100 is complete control.

On to `CN1CC(c2ccccc2OC(F)(F)C(F)F)C(C(=O)Nc2ccccc2F)C1=O` (stereo not drawn) [Compound 1053], for which the pest or weed control at 125 g/ha in [1] (visual injury on 0 to 100 scale (0 no effect, 100 complete control), approx. 10 d, read-out: Ryegrass, Italian plant response rating) amounted to 0%; in assay [3] (visual injury on 0 to 100 scale (0 no effect, 100 complete control), approx. 10 d, read-out: Barnyardgrass plant response rating), 0%; in assay [4] (visual injury on 0 to 100 scale (0 no effect, 100 complete control), approx. 10 d, read-out: Kochia plant response rating), 0%; in [5] (visual injury on 0 to 100 scale (0 no effect, 100 complete control), approx. 10 d, read-out: Foxtail, Giant plant response rating), 0%; in assay [6] (visual injury on 0 to 100 scale (0 no effect, 100 complete control), approx. 10 d, read-out: Galium plant response rating), 0%; in [7] (visual injury on 0 to 100 scale (0 no effect, 100 complete control), approx. 10 d, read-out: Pigweed plant response rating) it was 0%. The pest or weed control at 125 g/ha worked out at 0% in assay [9] (visual injury on 0 to 100 scale (0 no effect, 100 complete control), approx. 10 d, read-out: Ragweed plant response rating); 0% in assay [10] (visual injury on 0 to 100 scale (0 no effect, 100 complete control), approx. 10 d, read-out: Blackgrass plant response rating); 0% in assay [11] (Preemergence, visual injury rating after approximately 10 d, read-out: Pigweed plant response rating (0 to 100 scale, 0 is no effect, 100 is complete control)). The plant injury at 125 g/ha came out at 0% in assay [2] (visual injury on 0 to 100 scale (0 no effect, 100 complete control), approx. 10 d, read-out: Corn plant response rating) and 0% in assay [8] (visual injury on 0 to 100 scale (0 no effect, 100 complete control), approx. 10 d, read-out: Wheat plant response rating). The Corn plant response rating (crop injury, 0 = no effect, 100 = complete kill) at 500 g/ha in assay [2] (500 g ai/ha, visual injury, 0 to 100 scale (0 no effect, 100 complete control), approx. 10 d) is 0%. Also, the pest or weed control at 500 g/ha in assay [3] (500 g ai/ha, visual injury, 0 to 100 scale (0 no effect, 100 complete control), approx. 10 d, read-out: Plant response rating, Barnyardgrass) amounted to 0%; in assay [4] (500 g ai/ha, visual injury, 0 to 100 scale (0 no effect, 100 complete control), approx. 10 d, read-out: Plant response rating, Kochia), 0%; in assay [5] (500 g ai/ha, visual injury, 0 to 100 scale (0 no effect, 100 complete control), approx. 10 d, read-out: Plant response rating, Foxtail, Giant), 0%; in [6] (500 g ai/ha, visual injury, 0 to 100 scale (0 no effect, 100 complete control), approx. 10 d, read-out: Plant response rating, Galium), 0%; in assay [10] (500 g ai/ha, visual injury, 0 to 100 scale (0 no effect, 100 complete control), approx. 10 d, read-out: Plant response rating, Blackgrass), 0%; in assay [11] (preemergence, visual injury rating about 10 d after treatment, 0 to 100 scale (0 no effect, 100 complete control), read-out: Pigweed plant response rating), 0%. Further, the pest or weed control at 250 g/ha in assay [12] (setting [16]), in assay [13] (setting [16]), in [14] (setting [16]) and in assay [15] (setting [16]) was 0% throughout.
With `O=C1NC[C@H](c2cncc(C(F)(F)F)c2)[C@H]1C(=O)Nc1ccccc1F` [Compound 887], the pest or weed control at 125 g/ha in assay [1] (setting [17]) was determined as 0%; in assay [3] (setting [19]), 80%; in [4] (setting [20]), 0%; in [5] (setting [21]) it was 70%; in assay [6] (setting [22]), 0%; in [7] (setting [23]), 0%. Further, the pest or weed control at 125 g/ha in [9] (setting [25]), in assay [10] (setting [26]) and in [11] (setting [27]) was 0% each time. In addition, the plant injury at 125 g/ha in assay [2] (setting [18]) and in assay [8] (setting [24]) was 0% throughout. The pest or weed control at 500 g/ha in assay [11] (setting [28]) is 0%. Also, the pest or weed control at 250 g/ha in assay [12] (setting [29]) turned out to be 50%; in assay [13] (setting [29]), 0%; in assay [14] (setting [29]) it was 65%; in assay [15] (setting [29]), 0%.
On to `CN1C[C@H](c2cccc(COC(F)F)c2)[C@@H](C(=O)Nc2ccccc2S(C)(=O)=O)C1=O` [Compound 877], for which the pest or weed control at 125 g/ha is 20% in [1] (setting [17]); 60% in assay [3] (setting [19]); 20% in assay [4] (setting [20]); 70% in assay [5] (setting [21]); 20% in assay [6] (setting [22]); 0% in [7] (setting [23]). Also, the pest or weed control at 125 g/ha in assay [9] (setting [25]), in assay [10] (setting [26]) and in assay [11] (setting [27]) was 0% each time. The results for the plant injury at 125 g/ha in assay [2] (setting [18]) and in assay [8] (setting [24]) were 0% and 30%, respectively. For the same molecule, the pest or weed control at 500 g/ha in assay [11] (setting [28]) came to 0%. In addition, the pest or weed control at 250 g/ha turned out to be 55% in assay [12] (setting [29]), 0% in [13] (setting [29]), 100% in [14] (setting [29]) and 0% in assay [15] (setting [29]).
